Literature values in article PMC4533831 (Molecular pharmaceutics, 2015).

Tested on: IGF2R
Settings: read-out: relative binding affinity IC50; affinity to IGF2R

IC50: 23 µM
Compound: O=C[C@@H](O)[C@@H](O)[C@H](O)[C@H](O)COP(=O)(O)O [M6P, mannose-6-phosphate]
